Earlier results, collected in patent US7759312B2 (priority 2005, dated 2010).

Assays:
[1] = patients with acromegaly
GH = settings: following a subcutaneous octreotide injection
IGF-1 = settings: acromegaly

## L-cysteinamide, D-phenylalanyl-L-cysteiny-L-phenylalanyl-D-tryptophyl-L-lysyl-L-threonyl-N-[2-hydroxy-1-(hydroxymethyl)propyl]-,cyclic(2→7)-disulfide; [Octreotide, L-cysteinamide, D-phenylalanyl-L-cysteiny-L-phenylalanyl-D-tryptophyl-L-lysyl-L-threonyl-N-[2-hydroxy-1-(hydroxymethyl)propyl]-,cyclic(2→7)-disulfide; [R—(R*,R*)]]
[1]
  mean percent of the drug bound: 41.2%
  total body clearance: 18 L/h
[1]; 100 mcg dose, subcutaneous
  mean peak concentration: 2.8 ng/mL
  time to mean peak concentration: 0.7 h
GH
  time to decrease of GH levels: within two hours
IGF-1
  patients with normalization of IGF-1 levels: up to 60%
